Data as given in patent US8058475B2, “Substituted cyclohexylmethyl compounds” (Gruenenthal GmbH, priority 2005, dated 2011).
Like-named read-outs stand apart in the source and are kept apart here.

Biological target: human μ-opiate receptor (Homo sapiens, UniProt P35372)
Assay: Affinity for the human μ-opiate receptor ([3H]-naloxone displacement, SPA, CHO-K1 membrane preparation)
Format: binding
Conditions: for inhibition at 1 µM: read-out: μ-Opioid receptor, % inhibition [1 μM]; for Ki: read-out: μ-Opioid receptor, Ki
[1] = 1 μM test substance, inhibition of specific [3H]-naloxone binding

human μ-opiate receptor, sequence (P35372 whole entry): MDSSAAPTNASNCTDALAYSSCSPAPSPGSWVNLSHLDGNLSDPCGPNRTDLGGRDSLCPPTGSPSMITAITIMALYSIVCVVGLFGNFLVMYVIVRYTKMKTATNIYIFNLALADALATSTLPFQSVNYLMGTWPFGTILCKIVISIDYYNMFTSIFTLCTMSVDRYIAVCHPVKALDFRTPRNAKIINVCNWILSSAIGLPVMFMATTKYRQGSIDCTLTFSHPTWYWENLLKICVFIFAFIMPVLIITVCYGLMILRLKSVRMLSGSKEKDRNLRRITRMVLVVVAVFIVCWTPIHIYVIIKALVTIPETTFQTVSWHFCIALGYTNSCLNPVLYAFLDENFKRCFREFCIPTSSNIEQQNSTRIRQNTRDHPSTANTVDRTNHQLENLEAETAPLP

Structure (SMILES): CN(C)C(c1ccc(Cl)cc1)C1CCC(CCNC(=O)c2ccc(F)c(F)c2)CC1 (stereo not drawn) [compound 445, N-(2-{4-[(4-chloro-phenyl)-dimethylamino-methyl]-cyclohexyl}-ethyl)-3,4-difluoro-benzamide]
- inhibition at 1 µM: 86%
- Ki: 69 nM

Structure (SMILES): CCSc1ncccc1C(=O)NCC1CCC(C(c2ccc(Cl)cc2)N(C)C)CC1 (stereo not drawn) [compound 351, N-{4-[(4-chloro-phenyl)-dimethylamino-methyl]-cyclohexylmethyl}-2-ethyl-sulfanyl-nicotinamide]
- μ-Opioid receptor, % inhibition [1 μM]: 89%
- Ki: 58 nM

Structure (SMILES): CN(C)C(c1ccc(Cl)cc1)C1CCC(CCNC(=O)c2cc(F)c(Cl)cc2Cl)CC1 (stereo not drawn) [compound 437, 2,4-dichloro-N-(2-{4-[(4-chloro-phenyl)-dimethylamino-methyl]-cyclohexyl}-ethyl)-5-fluoro-benzamide]
- inhibition at 1 µM: 80%
- Ki: 100 nM

Structure (SMILES): CN(C)C(c1ccc(F)cc1)C1CCC(NC(=O)c2ccc(F)c(Cl)c2)CC1 (stereo not drawn) [compound 280, 3-chloro-N-{4-[dimethylamino-(4-fluoro-phenyl)-methyl]-cyclohexyl}-4-fluoro-benzamide]
- inhibition at 1 µM: 73%
- Ki: 310 nM

Structure (SMILES): CN(C)C(c1ccc(Cl)cc1)C1CCC(CCNC(=O)c2ccc(F)cc2)CC1 (stereo not drawn) [compound 408, N-(2-{4-[(4-chloro-phenyl)-dimethylamino-methyl]-cyclohexyl}-ethyl)-4-fluoro-benzamide]
- inhibition at 1 µM: 82%
- Ki: 12 nM

Structure (SMILES): CN(C)C(c1cccc(F)c1)C1CCC(CCNC(=O)c2ccc(Cl)cc2)CC1 (stereo not drawn) [compound 406, 4-chloro-N-(2-{4-[dimethylamino-(3-fluoro-phenyl)-methyl]-cyclohexyl}-ethyl)-benzamide]
- inhibition at 1 µM: 81%
- Ki: 40 nM

Structure (SMILES): CN(C)C(c1ccc(F)cc1)C1CCC(NC(=O)c2cc(F)c(F)cc2F)CC1 (stereo not drawn) [compound 271, N-{4-[dimethylamino-(4-fluoro-phenyl)-methyl]-cyclohexyl}-2,4,5-trifluoro-benzamide]
- inhibition at 1 µM: 75%
- Ki: 19 nM

Structure (SMILES): CN(C)C(c1ccc(F)cc1)C1CCC(CCNC(=O)c2cccc(Cl)c2)CC1 (single isomer, unassigned) [compound 423, 3-chloro-N-(2-{4-[dimethylamino-(4-fluoro-phenyl)-methyl]-cyclohexyl}-ethyl)-benzamide]
- μ-Opioid receptor, % inhibition [1 μM]: 83%
- Ki: 15 nM

Structure (SMILES): CCCCCC1(O)CCC(C(c2cccc(F)c2)N(C)C)CC1 (stereo not drawn) [compound 154, 4-[dimethylamino-(3-fluoro-phenyl)-methyl]-1-pentyl-cyclohexanol]
- inhibition at 1 µM [1]: 50%

Structure (SMILES): CN(C)C(c1ccccc1)C1CCC(CCNC(=O)C2(c3ccc(Cl)cc3)CCCC2)CC1 (stereo not drawn) [compound 449, 1-(4-chloro-phenyl)-cyclopentane-carboxylic acid {2-[4-(dimethylamino-phenyl-methyl)-cyclohexyl]-ethyl}-amide]
- inhibition at 1 µM: 88%
- Ki: 36 nM

Structure (SMILES): COc1c(C(=O)NCCC2CCC(C(c3ccccc3)N(C)C)CC2)csc1Cl (stereo not drawn) [compound 474, 5-chloro-4-methoxy-thiophene-3-carboxylic acid {2-[4-(dimethylamino-phenyl-methyl)-cyclohexyl]-ethyl}-amide]
- inhibition at 1 µM: 100%
- Ki: 2.7 nM

Structure (SMILES): CCCc1ccc(C(=O)NCC2CCC(C(c3cccs3)N(C)C)CC2)cc1 (stereo not drawn) [compound 356, N-[4-(dimethylamino-thiophen-2-yl-methyl)-cyclohexylmethyl]-4-propyl-benzamide]
- inhibition at 1 µM: 86%
- Ki: 120 nM

Structure (SMILES): CN(C)C(c1cccc(F)c1)C1CCC(CCNC(=O)c2cccc(Cl)c2)CC1 (single isomer, unassigned) [compound 400, 3-chloro-N-(2-{4-[dimethylamino-(3-fluoro-phenyl)-methyl]-cyclohexyl}-ethyl)-benzamide]
- inhibition at 1 µM: 94%
- Ki: 23 nM

Structure (SMILES): CN(C)C(c1cccc(F)c1)C1CCC(CNC(=O)c2ccccc2Br)CC1 (stereo not drawn) [compound 363, 2-bromo-N-{4-[dimethylamino-(3-fluoro-phenyl)-methyl]-cyclohexylmethyl}-benzamide]
- inhibition at 1 µM: 85%
- Ki: 38 nM

Structure (SMILES): CN(C)C(c1ccc(F)cc1)C1CCC(NC(=O)c2ccc(Cl)c(Cl)c2)CC1 (stereo not drawn) [compound 270, 3,4-dichloro-N-{4-[dimethylamino-(4-fluoro-phenyl)-methyl]-cyclohexyl}-benzamide]
- inhibition at 1 µM: 75%
- Ki: 190 nM

Structure (SMILES): COc1c(C(=O)NC2CCC(C(c3cccs3)N(C)C)CC2)csc1Cl (stereo not drawn) [compound 195, 5-chloro-4-methoxy-thiophene-3-carboxylic acid [4-(dimethylamino-thiophen-2-yl-methyl)-cyclohexyl]-amide]
- inhibition at 1 µM: 96%
- Ki: 15 nM

Structure (SMILES): COc1c(C(=O)NCC2CCC(C(c3ccccc3)N(C)C)CC2)csc1Cl (stereo not drawn) [compound 293, 5-chloro-4-methoxy-thiophene-3-carboxylic acid [4-(dimethylamino-phenyl-methyl)-cyclohexylmethyl]-amide]
- inhibition at 1 µM: 102%
- Ki: 4.6 nM

Structure (SMILES): CC(=O)N(CCc1c[nH]c2ccccc12)C1CCC(C(c2ccccc2)N(C)C)CC1 (stereo not drawn) [compound 182, N-(2-(1H-indol-3-yl)ethyl)-N-(4-((dimethylamino)(phenyl)methyl)cyclohexyl)-acetamide]
- inhibition at 1 µM: 95%
- Ki: 2.1 nM

Structure (SMILES): CN(C)C(c1ccc(Cl)cc1)C1CCC(CNC(=O)c2csc3ccccc23)CC1 (single isomer, unassigned) [compound 336, benzo[b]thiophene-3-carboxylic acid {4-[(4-chloro-phenyl)-dimethylamino-methyl]-cyclohexylmethyl}-amide]
- inhibition at 1 µM: 92%
- Ki: 39 nM

Structure (SMILES): COc1ccccc1C(=O)NCC1CCC(C(c2cccs2)N(C)C)CC1 (stereo not drawn) [compound 305, N-[4-(dimethylamino-thiophen-2-yl-methyl)-cyclohexylmethyl]-2-methoxy-benzamide]
- inhibition at 1 µM: 98%
- Ki: 12 nM

Structure (SMILES): Cc1cc(C(=O)NCC2CCC(C(c3ccc(Cl)cc3)N(C)C)CC2)no1 (stereo not drawn) [compound 385, 5-methyl-isoxazole-3-carboxylic acid {4-[(4-chloro-phenyl)-dimethylamino-methyl]-cyclohexylmethyl}-amide]
- inhibition at 1 µM: 82%
- Ki: 68 nM

Structure (SMILES): CN(C)C(c1ccc(Cl)cc1)C1CCC(O)(c2ccccc2)CC1 (stereo not drawn) [compound 158, 4-[(4-chloro-phenyl)-dimethylamino-methyl]-1-phenyl-cyclohexanol]
- inhibition at 1 µM [1]: 58%

Structure (SMILES): Cc1c(S(=O)(=O)c2ccc(Cl)cc2)csc1C(=O)NC1CCC(C(c2ccccc2)N(C)C)CC1 (stereo not drawn) [compound 253, 4-(4-chloro-benzenesulfonyl)-3-methyl-thiophene-2-carboxylic acid [4-(dimethylamino-phenyl-methyl)-cyclohexyl]-amide]
- μ-Opioid receptor, % inhibition [1 μM] (1 µM): 80%
- Ki: 79 nM

Structure (SMILES): CN(C)C(c1ccc(Cl)cc1)C1CCC(O)(Cc2ccccc2)CC1 (stereo not drawn) [compound 159, 1-benzyl-4-[(4-chloro-phenyl)-dimethylamino-methyl]-cyclohexanol]
- inhibition at 1 µM [1]: 83%

Structure (SMILES): COc1cccc(CC(=O)NCCC2CCC(C(c3cccs3)N(C)C)CC2)c1 (stereo not drawn) [compound 454, N-{2-[4-(dimethylamino-thiophen-2-yl-methyl)-cyclohexyl]-ethyl}-2-(3-methoxy-phenyl)-acetamide]
- inhibition at 1 µM: 87%
- Ki: 51 nM

Structure (SMILES): CN(C)C(c1ccccc1)C1CCC(CCNC(=O)c2csc(-c3ccccc3)n2)CC1 (stereo not drawn) [compound 463, 2-phenyl-thiazole-4-carboxylic acid {2-[4-(dimethylamino-phenyl-methyl)-cyclohexyl]-ethyl}-amide]
- inhibition at 1 µM: 104%
- Ki: 8.6 nM

Structure (SMILES): CC(C)S(=O)(=O)c1csc(C(=O)NCC2CCC(C(c3cccs3)N(C)C)CC2)c1Cl (stereo not drawn) [compound 367, 3-chloro-4-(propane-2-sulfonyl)-thiophene-2-carboxylic acid [4-(dimethylamino-thiophen-2-yl-methyl)-cyclohexylmethyl]-amide]
- inhibition at 1 µM: 85%
- Ki: 110 nM

Structure (SMILES): CCC(C)C(=O)NCC1CCC(C(c2ccccc2)N(C)C)CC1 (stereo not drawn) [compound 387, N-[4-(dimethylamino-phenyl-methyl)-cyclohexylmethyl]-2-methyl-butyramide]
- inhibition at 1 µM: 81%
- Ki: 70 nM

Structure (SMILES): CN(C)C(c1cccs1)C1CCC(CNC(=O)c2cccc(Br)c2)CC1 (stereo not drawn) [compound 307, 3-bromo-N-[4-(dimethylamino-thiophen-2-yl-methyl)-cyclohexylmethyl]-benzamide]
- inhibition at 1 µM: 98%
- Ki: 6.2 nM

Structure (SMILES): Cc1oc(-c2ccc(Cl)cc2)cc1C(=O)NC1CCC(C(c2cccc(F)c2)N(C)C)CC1 (stereo not drawn) [compound 285, 5-(4-chloro-phenyl)-2-methyl-furan-3-carboxylic acid {4-[dimethylamino-(3-fluoro-phenyl)-methyl]-cyclohexyl}-amide]
- inhibition at 1 µM: 71%

Structure (SMILES): CCC(C)C(=O)NCC1CCC(C(c2cccc(F)c2)N(C)C)CC1 (single isomer, unassigned) [compound 342, N-{4-[dimethylamino-(3-fluoro-phenyl)-methyl]-cyclohexylmethyl}-2-methyl-butyramide]
- inhibition at 1 µM: 90%
- Ki: 28 nM

Structure (SMILES): CN(C)C(c1cccs1)C1CCC(NC(=O)c2cncc(Br)c2)CC1 (stereo not drawn) [compound 225, 5-bromo-N-[4-(dimethylamino-thiophen-2-yl-methyl)-cyclohexyl]-nicotinamide]
- inhibition at 1 µM: 87%
- Ki: 20 nM

Structure (SMILES): CN(C)C(c1ccccc1)C1CCC(CCNC(=O)c2cccc(C#N)c2)CC1 (stereo not drawn) [compound 477, 3-cyano-N-{2-[4-(dimethylamino-phenyl-methyl)-cyclohexyl]-ethyl}-benzamide]
- inhibition at 1 µM: 96%
- Ki: 13 nM

Structure (SMILES): CN(C)C(c1ccccc1)C1CCC(NC(=O)C2CCCCC2)CC1 (stereo not drawn) [compound 272, cyclohexanecarboxylic acid [4-(dimethylamino-phenyl-methyl)-cyclohexyl]-amide]
- inhibition at 1 µM: 75%
- Ki: 90 nM

Structure (SMILES): CN(C)C(c1ccccc1)C1CCC(CCNC(=O)c2ccc(Cl)c(Cl)c2)CC1 (stereo not drawn) [compound 416, 3,4-dichloro-N-{2-[4-(dimethylamino-phenyl-methyl)-cyclohexyl]-ethyl}-benzamide]
- inhibition at 1 µM: 86%
- Ki: 19 nM
